For six compounds, normalised response results are on record in the supplement of paper PMC4862054.

Details in all cases: incubation time: 72 h
Test [1] concerns BT-474. Description: normalised response (% of control), CellTiter-Glo; higher = more viable cells (100 = DMSO, 0 = benzethonium chloride kill control). Put shortly:
(§1)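 Two readouts were taken after 72 h: CellTox Green fluorescence (485/520 nm) first, then CellTiter-Glo luminescence after 10 min at room temperature. Breast cancer cell lines had been seeded as 20 µl suspension into 384-well plates holding compound at 5 concentrations in 10-fold steps across a compound-specific 10,000-fold range. Each value is a normalised signal at a single concentration, with plates scaled to 0.1 % DMSO (100) and a positive kill control (0).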
A general note: In ATP-based viability assays light output follows the ATP content of the culture.

Test [2] has as its system BT-549. The description is as above. The procedure, abridged:
as §1

Test [3] concerns CAL-120. The test is described as above. Put shortly: as §1
Test [4] has as its system CAL-148. The description is as above. Put shortly: as §1
In test [5] the test system is CAL-51. The description is as above. Put shortly: as §1
Test [6] has as its system CAL-85-1. Described as above. Put shortly:
as §1

Test [7] deals with DU-4475. The test is described as above. The procedure, abridged: as §1
Test [8] concerns HCC1143. The test is described as above. Put shortly:
as §1

In test [9] the test system is HCC1599. Described as above. Put shortly: as §1
Test [10] concerns HCC1937. The description is as above. The procedure, abridged: as §1
In test [11] the test system is HDQ-P1. The test is described as above. The procedure, abridged: as §1
In test [12] the test system is Hs578T. The test is described as above. Put shortly:
as §1

The test system of test [13] is MCF-10A. The test is described as above. Put shortly: as §1
The test system of test [14] is MDA-MB-231. The test is described as above. Put shortly:
as §1

In test [15] the test system is MDA-MB-436. The test is described as above. Put shortly:
as §1

The subject of test [16] is MDA-MB-453. The description is as above. The procedure, abridged:
as §1

Test [17] deals with MDA-MB-468. The description is as above. The procedure, abridged: as §1
The subject of test [18] is MFM-223. The test is described as above. Put shortly: as §1
Test [19] relates to SK-BR-3. Described as above. Put shortly: as §1
The subject of test [20] is BT-474. Description: normalised response (% of control), CellTox Green; higher = less cell death (100 = DMSO, 0 = benzethonium chloride kill control). The procedure, abridged:
as §1

Test [21] has as its system BT-549. The description is as above. The procedure, abridged:
as §1

The test system of test [22] is CAL-120. Described as above. Put shortly: as §1
In test [23] the test system is CAL-148. The description is as above. The procedure, abridged:
as §1

The test system of test [24] is CAL-51. Described as above. The procedure, abridged:
as §1

Test [25] deals with CAL-85-1. Described as above. Put shortly:
as §1

Test [26] concerns DU-4475. Described as above. The procedure, abridged: as §1
The subject of test [27] is HCC1143. Described as above. Put shortly: as §1
Test [28] relates to HCC1599. The test is described as above. The procedure, abridged:
as §1

Test [29] has as its system HCC1937. Described as above. The procedure, abridged:
as §1

Test [30] deals with MCF-10A. The description is as above. Put shortly:
as §1

In test [31] the test system is MDA-MB-231. Described as above. Put shortly:
as §1

Test [32] relates to MDA-MB-436. The description is as above. The procedure, abridged: as §1
For test [33], the system named is MDA-MB-453. The test is described as above. The procedure, abridged: as §1
The test system of test [34] is MDA-MB-468. Described as above. The procedure, abridged: as §1
The subject of test [35] is MFM-223. The test is described as above. The procedure, abridged: as §1

For the compound `O=C(c1ccc(C(=O)N2CCC(N3CCCC3)CC2)c(Nc2ccccc2)c1)N1CCC(N2CCCC2)CC1` [UNC1215] (3 nM), the normalised response in test [1] was found to be 94.4%; in test [2], 96.6%; in [3], 95.3%; in test [4], 91%; in test [5] it was 123%; in test [6] it was 93.7%. In addition, the normalised response in [7] is 97.2%; in test [8] it was 87.5%; in [9], 92.1%; in test [10] it was 91.7%; in [11], 97.3%; in test [12] it was 99.1%. The normalised response is 102% in [13]; 99.1% in test [14]; 93.6% in [15]; 102% in test [16]; 101% in [17]; 94.5% in test [18]. This compound gave a normalised response in test [19] of 99%.

On to `O=C(c1ccc(C(=O)N2CCC(N3CCCC3)CC2)c(Nc2ccccc2)c1)N1CCC(N2CCCC2)CC1` [UNC1215] (30 nM), for which the normalised response in test [1] is 98.7%; in test [2] it was 97.8%; in [3], 102%; in [4], 95%; in test [5] it was 77.9%; in test [6] it was 96.7%. Further, the normalised response in [7] was 97%; in test [8], 97.3%; in test [9], 118%; in [10] it was 96.7%; in test [11], 94.3%; in test [12] it was 103%. For the same compound, the normalised response in [13] was found to be 103%; in test [14] it was 90.2%; in test [15], 104%; in test [16], 91.5%; in test [17], 97.4%; in test [18], 91.4%. The compound further had a normalised response in [19] of 100%.

Regarding `O=C(c1ccc(C(=O)N2CCC(N3CCCC3)CC2)c(Nc2ccccc2)c1)N1CCC(N2CCCC2)CC1` [UNC1215] (3000 nM), the normalised response in test [20] was 96.9%; in [21], 85.1%; in [22], 99.3%; in test [23] it was 99.7%; in [24], 114%; in [25], 96.8%. Also, the normalised response came to 98.5% in test [26]; 109% in [27]; 99.8% in test [28]; 111% in [29]; 101% in test [30]; 98% in test [31]. In addition, the normalised response stood at 96.3% in [32]; 99.2% in test [33]; 80.5% in test [34]; 101% in test [35]; 95% in test [1]; 96.9% in test [2]. The normalised response turned out to be 98% in test [3]; 94.9% in test [4]; 115% in [5]; 94.7% in test [6]; 98.3% in test [7]; 93.9% in test [8]. Also, the normalised response in [9] is 107%; in test [10], 94%; in test [11], 100%; in [12] it was 95.3%; in test [13], 108%; in test [14], 91.2%. Besides, the normalised response in test [15] was determined as 92.8%; in test [16], 98%; in test [17], 91.6%; in test [18], 92.6%; in test [19] it was 93.5%.

Regarding `C[C@]1(c2nc3c(C(N)=O)cccc3[nH]2)CCCN1` [Veliparib] (10 nM), the normalised response in test [1] worked out at 103%; in test [2], 100%; in test [3], 102%; in test [4], 98.8%; in test [5], 118%; in test [6], 106%. In addition, the normalised response in test [7] worked out at 104%; in test [8], 105%; in [9] it was 92.1%; in test [10], 101%; in test [11], 98.7%; in [12] it was 98.8%. The normalised response worked out at 105% in test [13]; 99% in test [14]; 99% in test [15]; 109% in [16]; 108% in test [17]; 99.7% in test [18]. The normalised response in test [19] came to 110%.

On to `CC[C@]1(O)C[C@@H]2CN(CCc3c([nH]c4ccccc34)[C@@](C(=O)OC)(c3cc4c(cc3OC)N(C)[C@H]3[C@@](O)(C(=O)OC)[C@H](OC(C)=O)[C@]5(CC)C=CCN6CC[C@]43[C@@H]65)C2)C1` [Vinblastine] (1 nM), for which the normalised response in test [1] came to 100%; in [2], 87.8%; in [3], 95%; in [4], 98.8%; in [5], 101%; in test [6], 93%. Moreover, the normalised response in test [7] stood at 96.9%; in test [8], 97.1%; in test [9] it was 101%; in test [10], 94.9%; in test [11], 101%; in [12], 102%. The normalised response in test [13] is 103%; in test [14], 94.7%; in [15] it was 90.7%; in [16], 97.2%; in test [17] it was 97.9%; in [18] it was 97.6%. The compound also gave a normalised response in test [19] of 94.7%.

Take `CS(=O)(=O)c1ccc(C(=O)Nc2ccc(Cl)c(-c3ccccn3)c2)c(Cl)c1` [Vismodegib] (10 nM): the normalised response is 90.2% in test [1]; 96.4% in [2]; 95.2% in test [3]; 91% in [4]; 126% in [5]; 102% in test [6]. The normalised response in [7] turned out to be 96.4%; in test [8], 93.9%; in [9] it was 100%; in test [10], 96.4%; in test [11], 99.4%; in [12], 95.4%. The normalised response in test [13] amounted to 90.3%; in test [14] it was 90.8%; in test [15] it was 91.5%; in test [16] it was 89.4%; in test [17], 92.9%; in test [18], 94.3%. The normalised response in [19] came out at 105%.
